Reference: patent publication US5461046A, “1-,2-,3-,4-,5-,6-,7-,8-, and/or 9-substituted dibenzoxazepine compounds, pharmaceutical compositions and methods for treating pain” (G. D. Searle & Co., priority 1993, dated 1995)
Where two headings read alike, the source gives them in different places. Blank lines part the entries; values can stand above or below the molecule they belong to.

Assays:
[1] = system: phenylbenzoquinone (PBQ)-induced writhing in mice; experiment: Writhing Assay (phenylbenzoquinone-induced writhing, analgesia); format: in vivo, Charles River male albino mice; conditions: for responders at 30 mg/kg: Mus musculus, 25 min, 25 min before PBQ i.p., number of mice out of ten with analgesia
Text: The Writhing Assay is one of the most widely-used experimental procedures for measuring the analgesic activity of different narcotic and nonnarcotic analgesic agents, and involves the continuous, chemically-induced pain of visceral origin to an animal, such as a mouse or rat. [Gyires et al., Arch. int. Pharmacodyn, 267, 131-140 (1984); C. Vander Wende et al., Fed. Proc., 15, 494 (1956); Koster et al., Fed. Proc., 18, 412 (1959); and Witken et al., J. Pharmacol. exp. Ther., 133, 400-408 (1961).] Chemicals which may be used to induce this pain include phenylbenzoquinone (PBQ) and acetic acid. As a result of the chemical irritation to the animal, a characteristic stretching and writhing of the animal (dorsiflexion of the animal's back, extension of its hindlimbs and the strong contraction of its abdominal musculature) will generally occur. […] Drugs which reduce the number of writhes of the animal appear to restore the normal nociceptive threshold of the animal.
Charles River male albino mice, weighing 20 to 30 grams were used in this assay.
Twenty-five minutes after subcutaneous or intragastric administration to ten mice of 30 mg per kilogram of body weight of a compound of the present invention ("test compound"), […] per 10 g of body weight of a 0.025% w/v solution of PBQ was injected intraperitoneally into each mouse. Ten mice which were given saline in place of a test compound of the invention were used as a control group.
Five minutes later, each mouse was individually placed into a glass beaker for observation, and the number of writhes occurring during the following ten-minute period was counted.
A test compound was considered to have produced analgesia in a mouse if, in accordance with the conditions set forth above, and under the test criteria employed for this assay, after the administration of 30 mg per kilogram of body weight of a compound of the present invention to the mouse, the number of writhes elicited by a mouse injected with PBQ was equal to, or less than, one-half the median number of writhes recorded for the saline-treated control group of mice that day, as described by Taber in "Predictive Value of Analgesic Assays in Mice and Rats," Advances in Biochemical Psychopharmacology, 8, 191 (1974).
The results for the particular compounds of the present invention analyzed in this assay, and discussed in the examples identified below which correspond thereto, are presented in Table 2 hereinbelow under the heading "WRITHING ASSAY." The fractions indicate the number of mice out of ten in which a test compound produced analgesia.

[2] = biological target: T1, prostaglandin E2-induced contractions of segments of guinea pig ileum (Cavia porcellus, UniProt A0A286XHJ6); experiment: Prostaglandin (PGE) Antagonism Assay in guinea pig ileum; conditions: initial concentration 3 micromolar; estimated pA2 (slope -1.0 assumed) or Schild plot pA2
T1 construct: The ilea were then quickly removed from the guinea pigs; from tissue; host or cells: ileum segments of male albino guinea pigs
T1 sequence (A0A286XHJ6 1-405): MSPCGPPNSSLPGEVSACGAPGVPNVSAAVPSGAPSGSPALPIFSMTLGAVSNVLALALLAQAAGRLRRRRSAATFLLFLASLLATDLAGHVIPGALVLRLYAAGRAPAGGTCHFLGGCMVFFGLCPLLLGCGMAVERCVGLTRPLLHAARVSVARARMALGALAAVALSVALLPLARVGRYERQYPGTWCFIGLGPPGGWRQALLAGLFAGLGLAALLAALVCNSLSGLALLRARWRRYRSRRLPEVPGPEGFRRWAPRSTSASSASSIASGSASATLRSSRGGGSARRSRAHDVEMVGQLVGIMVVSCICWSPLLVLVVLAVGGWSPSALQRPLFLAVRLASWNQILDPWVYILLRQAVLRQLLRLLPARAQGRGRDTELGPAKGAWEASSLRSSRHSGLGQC
Experimental: In order to determine the effectiveness of several of the compounds of the present invention ("test compounds") as prostaglandin E2 antagonists,a prostaglandin antagonism assay was conducted, as described below, to determine the ability of these compounds to inhibit prostaglandin E2 -induced contractions of segments of guinea pig ileum.
Male albino guinea pigs weighing 200 to 500 grams were sacrificed by cervical dislocation. The ilea were then quickly removed from the guinea pigs and placed in a modified Tyrode solution, a solution which is known to those skilled in the art, containing one-half of the usual amount of magnesium ions.
Segments of ileum about 2 cm long were then cut and mounted in a 10-mL tissue bath containing the modified Tyrode solution. The solution was maintained at 37° C. and aerated with a gaseous mixture of 95% oxygen and 5% carbon dioxide. Data for a control prostaglandin E2 dose response curve plotting concentration of prostaglandin E2 versus the intensity of contractions, detected isotonically, was then obtained by experimentally adjusting the dose of the prostaglandin E2 being injected into the tissue bath, in a manner known by those of skill in the art.
Solutions or suspensions containing an initial concentration (3 micromolar) of a test compound in modified Tyrode solution ("test solutions/suspensions") were then separately substituted for the control bath solution. Each test solution/suspension was then kept in constant contact with the ileum tissue, except for brief periods to drain the bath in preparation for rinsing with fresh test solution/suspension. A second prostaglandin E2 dose response curve was then generated for prostaglandin E2 in the presence of a test compound.
A dose ratio of EC50 doses was then calculated from the results of each test in a manner known by those of skill in the art. A test compound was determined to be "active" if the initial concentration used yielded at least a two-fold shift (dose ratio greater than or equal to 2) in the dose response curve for prostaglandin E2.
The compounds of the present invention which were tested in this assay, and for which results are presented in Table 2, correspond to the particular examples specified in Table 2.

[3] = system: stimulant actions of prostaglandins on isolated smooth muscle preparations; conditions: cited from earlier work
[4] = system: micturition reflex in rats; conditions: urethane-anesthetized rats; cited from earlier work
[5] = ip, 30 mg per kg i.g., read-out: WRITHING ASSAY Number Out of Ten I.G. (converted)
[6] = sc, 30 mg per kg s.c., read-out: WRITHING ASSAY Number Out of Ten S.C.

Structure (SMILES): CCS(=O)(=O)CCC(=O)NNC(=O)N1Cc2ccccc2Oc2ccc(C)cc21 [Example 17, 8-methyldibenz[b,f][1,4]oxazepine-10(11H)-carboxylic acid, 2-[3-(ethylsulfonyl)-1-oxopropyl]hydrazide]
responders at 30 mg/kg [1, 5]: 22.2%
responders at 30 mg/kg [1, 6]: 20%
Kb [2]: 2.09 µM

Structure (SMILES): CCS(=O)(=O)CCC(=O)NNC(=O)N1Cc2cccc(Cl)c2Oc2ccccc21 [Example 18, 4-chlorodibenz[b,f][1,4]oxazepine-10(11H)-carboxylic acid, 2-[3-(ethylsulfonyl)-1-oxopropyl]hydrazide]
responders at 30 mg/kg [1, 5]: 40%
responders at 30 mg/kg [1, 6]: 40%
Kb [2]: 2.69 µM

Structure (SMILES): O=C(Cc1ccccc1)NNC(=O)N1Cc2ccccc2Oc2ccc(Cl)cc21 [SC-18637]
inhibition of stimulant actions of prostaglandins [3]: inhibit the stimulant actions of prostaglandins on isolated smooth muscle preparations

Structure (SMILES): CC(=O)NNC(=O)N1Cc2ccccc2Oc2ccc(Cl)cc21 [SC-19220]
bladder capacity [4]: increased
voiding efficiency of micturition [4]: reduced
inhibition of stimulant actions of prostaglandins [3]: inhibit the stimulant actions of prostaglandins on isolated smooth muscle preparations

Now from value to molecule, other results behind:

Kb [2]: 2.57 µM
Structure (SMILES): CCS(=O)(=O)CCC(=O)NNC(=O)N1Cc2ccccc2Oc2ccc(O)cc21 [Example 19, 8-hydroxydibenz[b,f][1,4]oxazepine-10(11H)-carboxylic acid, 2-[3-(ethylsulfonyl)-1-oxopropyl]hydrazide]
responders at 30 mg/kg [1, 5]: 40%
responders at 30 mg/kg [1, 6]: 30%

Kb [2]: 1.26 µM
Structure (SMILES): CCS(=O)(=O)CCC(=O)NNC(=O)N1Cc2ccccc2Oc2ccc(C(F)(F)F)cc21 [Example 20, 8-(trifluoromethyl)dibenz[b,f][1,4]oxazepine-10(11H)-carboxylic acid, 2-[3-(ethylsulfonyl)-1-oxopropyl]hydrazide]
potency in the Writhing Assay (in words) ([1]; 30 mg per kg s.c. or i.g.): most potent compound of the invention tested in this assay
responders at 30 mg/kg [1, 5]: 60%
responders at 30 mg/kg [1, 6]: 60%

Kb [2]: 1.05 µM
Structure (SMILES): CCS(=O)(=O)CCC(=O)NNC(=O)N1Cc2ccccc2Oc2ccccc21 [Example 21, Dibenz[b,f][1,4]oxazepine-10(11H)-carboxylic acid, 2-[3-(ethylsulfonyl)-1-oxopropyl]hydrazide]
responders at 30 mg/kg [1, 5]: 50%
responders at 30 mg/kg [1, 6]: 10%
